For experiment [1], the system named is Almond cellulose β-glucosidase(EC 3.2.1.21). In words: Comparison: hydrolysis of ginsenosides with almond cellulose β-glucosidase. The experiment is classed as biochemical. The following applies: substrate 0.5%, pH 5.0, 30° C., 18 hours. The text has this: (§1) To observe the differences between the ginsenoside glycosidases of the invention and known exo-cellulases, the ginsenoside glycosidases of the invention were compared with cellulose β-glucosidase (E.C. 3.2.1.21) in two reactions with 0.5% ginsenosides Rb1 or Rd as substrate.

Experiment [2] relates to ginsenoside glycosidases from wheat bran. In words: Hydrolysis of ginsenosides with ginsenoside glycosidases from wheat bran. The class given is biochemical. The following applies: 10 ml of 1% ginsenoside substrate, 40° C., 20 hours. On the procedure:
500 g of wheat bran was added to 2500 ml of 0.02 M acetate buffer pH 5 and extracted at 40° C. for 2 hours. 2000 ml of supernatant were obtained by filtration to which (NH4)2SO4 was added gradually with stirring until 70% saturation. The mixture stand at 4° C. overnight. Protein pellets were collected by centrifugation and redissolved in 80 ml of distilled water and dialyzed against 0.02 M acetate buffer pH 5.0. Insolubles were removed by centrifugation and the supernatant was adjusted to a volume of 200 ml to obtain the crude enzyme solution.
10 ml of the enzyme solution was allowed to react with 10 ml of 1% ginsenoside substrate at 40° C. for 20 hours.

In experiment [3] the test system is ginsenoside glycosidases from A. oryzae. As to the kind of experiment: Hydrolysis of ginsenosides with crude ginsenoside glycosidases from A. oryzae, TLC. The class given is biochemical, Aspergillus oryzae. As to conditions: pH 5.0, 30° C., 18 hours. As for the experimental part:
Aspergillus oryzae FFCCDL-39 g (available from Food Fermentation Culture Collection of Dalian Institute of Light Industry) was cultured with stirring in a medium containing 1% ginseng extracts and 3% wheat bran extracts at 30° C. for 64 hours. Cells were removed by centrifugation, after which (NH4)2SO4 powder was added to 2000 ml of the cell-free supernatant with stirring to 65% saturation. The solution was stored overnight at 4° C. and precipitated proteins were collected by centrifugation, resuspended in 80 ml of distilled water and dialyzed against 0.01M acetate buffer pH 5. Insolubles were removed by centrifugation, and the solution was adjusted to 200 ml with 0.01 M acetate buffer pH 5. The crude enzyme solution may be used to hydrolyze ginsenosides or to purify the enzymes.
Each 100 mg of ginsenosides Rb1, Rb2, Rc Re and Rd and each 10 mg of ginsenoside Rg3 and Rg2 were dissolved in separate tubes containing 10 ml of 0.01M acetate buffer pH 5. 10 ml of the crude enzyme solution obtained as above was added to each tube and allowed to react at 30° C. for 18 hours. Then 10 ml of n-butanol was added to stop the reactions. The products were measured by thin layer chromatography (TLC) (Silica gel 60-F254, Merck; chloroform:methanol:water 70:30:5). […]

Experiment [4] relates to ginsenoside glycosidase II. In words: Hydrolysis of ginsenosides with ginsenoside glycosidase II (Fraction 54). The class given is biochemical, Aspergillus niger. As to conditions: substrate 0.5%, pH 5.0, 30° C., 18 hours. As for the experimental part:
10 ml of the enzyme solution obtained in 1.1 was subjected to a DEAE-Cellulose DE-52 column (Pharamcia, 1.5×6.7 cm) to absorb the enzyme protein. The column was then eluted with a NaCl gradient (0.06, 0.12, 0.18, 0.24, 0.3, 0.4, 0.5 and 0.6M).
Fraction 54 which was eluted with 0.18 M NaCl from the DEAE-Cellulose column was lyophilized and appeared as a single dot when running on a SDS-polyacrylamide gel with a molecular weight of 90,000 Daltons. Therefore, it represented a purified enzyme and designated as ginsenoside glycosidase II.
as §1

The test system of experiment [5] is Cellulose β-glucosidase of Clostridium and Bacillus (EC 3.2.1.21). In words: Comparison: hydrolysis of ginsenosides with cellulose β-glucosidase of Clostridium and Bacillus. As to conditions: substrate 0.5%, pH 5.0, 30° C., 18 hours. The experiment is classed as biochemical, Clostridium thermocopiriae and Bacillus sp. AX.
From the text: as §1
Cellulose β-glucosidases (EC 3.2.1.21) from Clostridium thermocopiriae and Bacillus sp. AX cannot hydrolyze any glycosides of ginsenosides. The cellulose β-glucosidase from almond slightly hydrolyzes the C-20 glycoside of Rb1, Rb2 and Rc to give ginsenoside Rd, but it cannot hydrolyze the glucoside at C-3. Ginsenoside glycosidase II is similar to cellulose β-glucosidase from almond, but it only slightly hydrolyzes Rd. The properties of ginsenoside glycosidase III are totally different from those of cellulose β-glucosidases.

In experiment [6] the test system is ginsenoside glycosidase I from ginseng plants. In words: Hydrolysis of ginsenosides with fraction 52 (ginsenoside glycosidase I) from ginseng plant. The following applies: Fraction 52; substrate 0.5%; 50° C., pH 5.0, 18 hours. The experiment is classed as biochemical. As for the experimental part:
200 g of fresh ginseng root was cut into pieces and added to 600 ml of 0.02 M acetate buffer pH 5. Supernatant was obtained by filtration after the mixture stand at 40° C. for 2 hours. To the supernatant (NH4)2SO4 was added gradually until 70% saturation and the mixture stand overnight at 4° C. Then protein pellets were collected by centrifugation and redissolved in 15 ml of distilled water. The solution was dialyzed against 0.02 M Tris-HCl pH 7.4. Insolubles were removed by centrifugation and the volume of the supernatant was adjusted to 20 ml.
5 ml of the enzyme solution was subjected to a DEAE-Cellulose DE-25 column (Whatman, 1.4×6.7 cm). The column was eluted with a KCl gradient (0.06, 0.12, 0.18 and 0.24 M) in 0.02 M Tris-HCl pH 7.4. After elution, each fraction was tested for the activity of hydrolyzing ginsenosides. […] Fraction 52 can also hydrolyze the glucosidic bond at the twentieth carbon atom of Rb and Rc to give ginsenoside F2.

For `CC(C)=CCC[C@](C)(O[C@@H]1O[C@H](CO[C@@H]2O[C@H](CO)[C@@H](O)[C@H](O)[C@H]2O)[C@@H](O)[C@H](O)[C@H]1O)[C@H]1CC[C@]2(C)[C@@H]1[C@H](O)C[C@@H]1[C@@]3(C)CC[C@H](O[C@@H]4O[C@H](CO)[C@@H](O)[C@H](O)[C@H]4O[C@@H]4O[C@H](CO)[C@@H](O)[C@H](O)[C@H]4O)C(C)(C)[C@@H]3CC[C@]12C` [Rb1, ginsenoside Rb1], in experiment [1], the “Percentage of Rb1 in the reaction product” value (“Percentage of Rb1” below) turned out to be 80% and the “Percentage of Rd in the reaction product” value came to 20%. Also, in experiment [2], the “Percentage of F2 in the reaction product” value came out at 55% and the “Percentage of Rd in the reaction product” value is on record as 40%. In experiment [3], the “Percentage of C—K in the reaction product” value worked out at 45%, the “Percentage of F2 in the reaction product” value is given as 38%, the “Percentage of Rd in the reaction product” value amounted to 20% and the “Percentage of aglycone in the reaction product” value was 2%. Further, in experiment [4], the “Percentage of Rd in the reaction product” value came out at 90% and the “Percentage of Rg3 in the reaction product” value (“Percentage of Rg3” below) is listed as 5%. Further, the “Percentage of Rb1” value in experiment [5] is listed as 100%. Further, in experiment [6], the “Percentage of F2 in the reaction product” value is recorded as 70% and the “Percentage of Rd in the reaction product” value worked out at 30%.

On to `CC(C)=CCC[C@](C)(O[C@@H]1O[C@H](CO)[C@@H](O)[C@H](O)[C@H]1O)[C@H]1CC[C@]2(C)[C@@H]1[C@H](O)C[C@@H]1[C@@]3(C)CC[C@H](O[C@@H]4O[C@H](CO)[C@@H](O)[C@H](O)[C@H]4O[C@@H]4O[C@H](CO)[C@@H](O)[C@H](O)[C@H]4O)C(C)(C)[C@@H]3CC[C@]12C` [Rd, ginsenoside Rd], for which the “Percentage of Rb1” value in experiment [1] is on record as 100%. For the same molecule, in experiment [2], the “Percentage of F2 in the reaction product” value is listed as 40% and the “Percentage of Rd in the reaction product” value stood at 60%. Further, in experiment [3], the “Percentage of C—K in the reaction product” value is given as 29%, the “Percentage of F2 in the reaction product” value was 40%, the “Percentage of Rd in the reaction product” value came to 25% and the “Percentage of Rg3” value was 1%. Besides, the “Percentage of aglycone in the reaction product” value in experiment [3] stood at 5%. In addition, in experiment [4], the “Percentage of Rd in the reaction product” value was 90% and the “Percentage of Rg3” value came to 5%. The “Percentage of Rb1” value in experiment [5] stood at 100%. In experiment [6], the “Percentage of F2 in the reaction product” value came to 40% and the “Percentage of Rd in the reaction product” value is given as 60%.
